Where two headings read alike, the source gives them in different places.
How the values were obtained:
[1] = target: T1, OX2 (Homo sapiens, UniProt O43614); assay: Measurement of antagonism (PLAP assay), OX2; assay type: cell-based; parameters: expressed in transfected cells; host or cells: HEK-293 cells, expression vector pBabeCLIH
T1 sequence (O43614 1-444): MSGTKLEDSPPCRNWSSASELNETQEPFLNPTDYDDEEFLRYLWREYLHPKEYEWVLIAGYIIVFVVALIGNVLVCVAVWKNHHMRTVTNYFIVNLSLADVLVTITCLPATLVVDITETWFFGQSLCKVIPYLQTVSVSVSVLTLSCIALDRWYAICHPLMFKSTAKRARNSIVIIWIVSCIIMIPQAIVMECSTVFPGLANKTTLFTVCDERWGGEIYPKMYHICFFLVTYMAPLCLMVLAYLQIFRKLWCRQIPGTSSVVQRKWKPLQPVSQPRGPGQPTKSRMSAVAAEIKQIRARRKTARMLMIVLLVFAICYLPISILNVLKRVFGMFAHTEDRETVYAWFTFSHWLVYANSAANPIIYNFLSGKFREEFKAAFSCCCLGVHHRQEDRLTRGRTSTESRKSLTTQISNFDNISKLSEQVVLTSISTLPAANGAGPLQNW
Description: (§1) 2. Measurement of Antagonism (PLAP Assay)
(§2) The antagonistic function of the compound of the present invention to prevent the activation of OX2 and OX1 by orexin-A (OX-A), which is a natural peptide agonist, was measured using a cell-based reporter assay. […] The cells were plated at a density of 10,000 cells/well onto a non-coated 96-well plate in Dulbecco's modified Eagle medium (Sigma Cat No. D6046:10% v/v heat-inactivated fetal bovine serum was contained). The cells were cultured at 37° C. overnight, so that they could adhere to the plate. On the following day, cells were incubated with a compound of the present invention dissolved in Dulbecco's modified Eagle medium (Sigma Cat No. A8806:0.1% w/v bovine serum albumin was contained), and added to the cell plate to reach a final concentration of 0.1% dimethyl sulfoxide.
(§3) The thus obtained mixture was incubated at room temperature for 1 hour. Thereafter, human OX-A and forskolin were dissolved in the same medium as described above, which contained fetal bovine serum albumin, and the medium was then added to the cells, resulting in a final concentration of 300 nM forskolin. Subsequently, the cells were cultured at 37° C. for approximately 18 to 24 hours.

[2] = target: T2, OX1 (Homo sapiens, UniProt O43613); assay: Measurement of antagonism (PLAP assay), OX1; assay type: cell-based; parameters: expressed in transfected cells; host or cells: HEK-293 cells, expression vector pBabeCLIH
T2 sequence (O43613 1-425): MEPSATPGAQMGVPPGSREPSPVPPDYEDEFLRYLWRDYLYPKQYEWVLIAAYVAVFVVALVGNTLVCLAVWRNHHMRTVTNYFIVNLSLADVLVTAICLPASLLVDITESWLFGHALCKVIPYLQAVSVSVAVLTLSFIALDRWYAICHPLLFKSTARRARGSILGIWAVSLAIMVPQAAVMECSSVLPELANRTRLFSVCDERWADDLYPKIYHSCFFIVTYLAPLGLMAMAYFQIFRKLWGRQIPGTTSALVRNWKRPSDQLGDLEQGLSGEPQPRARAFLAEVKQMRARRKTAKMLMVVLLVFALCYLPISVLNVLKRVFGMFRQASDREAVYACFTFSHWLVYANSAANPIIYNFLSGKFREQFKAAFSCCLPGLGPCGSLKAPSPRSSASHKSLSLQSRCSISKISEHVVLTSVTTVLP
Description: as §1, §2, §3

[3] = system: mice (C57BL/6NCrlCrLj); assay: Sleep experiment (EEG/EMG) in mice; assay type: in vivo; conditions: for minimum effective dose (MED): oral, doses 0.3 to 100 mg/kg, accumulated sleep time within three hours after administration
Description: As a method for measuring the influence of the present compound on sleep time, electroencephalogram (EEG) and electromyogram (EMG) measurements were carried out in mice (C57BL/6NCrlCrLj).
In order to measure brain waves and muscle signals, EEG and EMG electrode implantation was performed on individual mice, and the mice were then housed in a state in which they could freely move and habituate in individual recording cages for 1 week or longer. Thereafter, amplified EEG and EMG signals were digitally recorded.
Mice received either oral administration of vehicle or test compound in vehicle, after which sleep/wake behavior of mice was recorded for 3 hours.
For sleep analysis, automatic analysis software from Kissei Comtec Co., Ltd. was used to analyze EEG frequency and EMG activity signals in detail and to determine sleep and wake states. Thereafter, accumulated sleeping time over 3 hours was calculated.
The effect of the compound to increase sleep time was evaluated as the difference between sleeping time on the vehicle-administration day and the sleep time on the subsequent drug-administration day.
The minimum effective dose (MED; mg/kg) was obtained from accumulated sleep time of mice with three hours after the administration.

[4] = target: T1, OX2; assay: Measurement of orexin receptor-binding ability ([125I]-OX-A, cell membranes, OX2); parameters: expressed in transfected cells; host or cells: CHO cells (membrane preparation); conditions: membranes of recombinant CHO cells expressing OX2, 0.2 nM [125I]-OX-A
[5] = target: T2, OX1; assay: Measurement of orexin receptor-binding ability ([125I]-OX-A, cell membranes, OX1); parameters: expressed in transfected cells; host or cells: CHO cells (membrane preparation)
[6] = system: patients with insomnia; conditions: cited from earlier work
[7] = system: normal humans; conditions: cited from earlier work
[8] = system: rats; conditions: cited from earlier work
[9] = mice, oral administration, difference to vehicle day, 3 hours
[10] = HEK-293 cells expressing human OX1, 1 nM human OX-A, IC50 converted by Cheng-Prusoff equation, read-out: OX1 (Ki)
[11] = membranes of recombinant CHO cells expressing OX1, 0.2 nM [125I]-OX-A, read-out: OX1 (IC50)
[12] = HEK-293 cells expressing human OX2, 1 nM human OX-A, IC50 converted by Cheng-Prusoff equation, read-out: OX2 (Ki)

Row | Structure (SMILES) | Ki [1] [nM] | Sleep extended time 10 mg/kg (min/3 hrs) [3, 9] [min/3 hrs] | IC50 ([4]; OX2 (IC50) nM) [nM] | IC50 [5] [nM] | Ki [2, 10] [nM] | IC50 [5, 11] [nM] | Ki [1, 12] [nM] | Sleep extended time 10 mg/kg (min/3 hrs) ([3]; po, 3 h) | IC50 ([4]; read-out: OX2 (IC50)) [nM] | also measured
1 | Cc1ncc(OC[C@@]2(c3ccccc3F)C[C@H]2C(=O)Nc2ccc(F)cn2)c(C)n1 [Example 263] | 8.6 | 27.3 | 17 | 82 |  |  |  |  |  | Ki [2]: 193 nM
2 | Cc1ncc(OC[C@@]2(c3ccccc3)C[C@H]2C(=O)Nc2ccc(F)cn2)c(C)n1 [Example 1, (1R,2S)-2-{[(2,4-dimethylpyrimidin-5-yl)oxy]methyl}-N-(5-fluoropyridin-2-yl)-2-phenylcyclopropanecarboxamide] | 10 | 18.3 | 6.8 |  | 157 | 139 |  |  |  | minimum effective dose (MED) ([3]; mice): 30 mg/kg
3 | Cc1ncc(OC[C@@]2(c3ccccc3)C[C@H]2C(=O)Nc2ccc(Cl)cn2)c(C)n1 [Example 16, (1R,2S)-N-(5-chloropyridin-2-yl)-2-{[(2,4-dimethylpyrimidin-5-yl)oxy]methyl}-2-phenylcyclopropanecarboxamide] |  |  |  |  | 80 | 40 | 5.4 | 19.0 | 1.9 | 
4 | Cc1ncc(OC[C@@]2(c3ccccc3)C[C@H]2C(=O)Nc2cc(C)c(F)cn2)c(C)n1 [Example 51, (1R,2S)-2-{[(2,4-dimethylpyrimidin-5-yl)oxy]methyl}-N-(5-fluoro-4-methylpyridin-2-yl)-2-phenylcyclopropanecarboxamide] | 1.2 | 23.6 | 3.9 | 6.4 |  |  |  |  |  | Ki [2]: 29 nM; minimum effective dose (MED) ([3]; mice): 3 mg/kg
5 | Cc1ncc(OC[C@@]2(c3ccc(Cl)cc3)C[C@H]2C(=O)Nc2ccc(F)cn2)c(C)n1 [Example 161] |  | 10.0 | 12 | 50 | 32 |  | 2.9 |  |  | 
6 | Cc1ncc(OC[C@@]2(c3ccccc3)C[C@H]2C(=O)Nc2cc(C)c(Cl)cn2)c(C)n1 [Example 45, (1R,2S)-N-(5-chloro-4-methylpyridin-2-yl)-2-{[(2,4-dimethylpyrimidin-5-yl)oxy]methyl}-2-phenylcyclopropanecarboxamide] |  |  |  |  | 19 | 13.9 | 0.45 | 15.2 | 6.2 | 
7 | CNC(=O)[C@@H](c1ccccc1)N1CCc2cc(OC)c(OC)cc2[C@@H]1CCc1ccc(C(F)(F)F)cc1 [almorexant, (2R)-2-{(1S)-6,7-dimethoxy-1-[2-(4-trifluoromethyl-phenyl)ethyl]-3,4-dihydro-1H-isoquinolin-2-yl}-N-methyl-2-phenylacetamide] |  |  |  |  |  |  |  |  |  | sleep efficacy, sleep latency, REM sleep [6]: exhibits improvement of sleep efficacy, shortness of sleep latency, increase of REM sleep and improvement of REM sleep ratio; sleep latency, sleep efficacy, total sleep time [7]: exhibits dose-dependently a reduction of sleep latency, sleep efficacy and extension of total sleep time; REM sleep time and non-REM sleep time [8]: dose-dependently increases both rapid eye movement (REM) sleep time and non-REM sleep time; wakefulness [8]: causes a decrease in wakefulness in rats
8 | Cc1ncc(OC[C@@]2(c3ccc(F)c(F)c3)C[C@H]2C(=O)Nc2cc(C)c(F)cn2)c(C)n1 [Example 164, (1R,2S)-2-(3,4-difluorophenyl)-2-{[(2,4-dimethylpyrimidin-5-yl)oxy]methyl}-N-(5-fluoro-4-methylpyridin-2-yl)cyclopropanecarboxamide] |  |  |  |  | 0.93 | 3 | 0.087 | 48.4 | 6 | 
9 | CCc1nc(C)ncc1OC[C@@]1(c2ccccc2)C[C@H]1C(=O)Nc1ccc(F)cn1 [Example 119, (1R,2S)-2-{[(4-ethyl-2-methylpyrimidin-5-yl)oxy]methyl}-N-(5-fluoropyridin-2-yl)-2-phenylcyclopropanecarboxamide] |  | 16.0 | 5.2 | 21 | 21 |  | 0.6 |  |  | 

— patent publication US8268848B2, “Cyclopropane compound” (Eisai R&D Management Co., Ltd., priority 2010, dated 2012)
